Assay results as given in paper PMC9138090, “Study on the Neuroprotective, Radical-Scavenging and MAO-B Inhibiting Properties of New Benzimidazole Arylhydrazones as Potential Multi-Target Drugs for the Treatment of Parkinson’s Disease” (Antioxidants, 2022).
Entries after “also recorded” stand apart in the source; their conditions may differ.

Assays:
[1] = Fe(II)-induced degradation of 2-deoxyribose (TBA-RS); details: 80 µmol/L, 2-deoxyribose 0.5 mmol/L
Procedure: The classical method of determining the TBA-reactive substances at 532 nm as described by Asakawa and Matsushita has been used. Two groups of measurement compositions named controls and samples were prepared in phosphate buffer (K2HPO4/KH2PO4, pH 7.4) for each of the used substrates. Both of them contained equivalent concentrations of lecithin (1 mg/mL) or 2-deoxyribose (0.5 mmol/L) and FeCl2 (0.1 mmol/L). In the controls, the tested hydrazones have been omitted and in the samples the effect of the newly designed compounds at the concentrations indicated below the figures has been determined. The obtained samples were incubated at 37 °C for 30 min. The reaction was stopped, and after adding 0.5 mL 2.8% trichloroacetic acid and 0.5 mL of thiobarbituric acid, the samples were heated in boiling water for 20 min. The lecithin containing samples were centrifuged at 3000 rpm for 20 min and the supernatant was aspired out. The results have been presented as a percentage of the control sample, treated only with ferrous iron where we expected maximum oxidative damage under the described conditions.

rat brain synaptosomes = experiment: 6-OHDA-induced neurotoxicity, GSH level; assay type: cell-based; details: 10 µM pretreatment, 6-OHDA 150 mmol/L 1 h
Procedure: Synaptosomes were prepared from brains of adult male Wistar rats. The brains were homogenized in 10 volume of cold buffer 1, containing 5 mM HEPES and 0.32 M sucrose (pH = 7.4). The brain homogenate was centrifuged twice at 1000× g for 5 min at 4 °C. The supernatant was collected and centrifuged 3 times at 10,000× g for 20 min at 4 °C. The pellet was re-suspended in ice-cold buffer 1. The synaptosomes were isolated by using Percoll reagent to prepare the gradient. Synaptosomes were re-suspended and incubated in buffer 2, containing 290 mM NaCl, 0.95 mM MgCl2 × 6H2O, 10 mM KCl, 2.4 mM CaCl2 × H2O, 2.1 mM NaH2PO4, 44 mM HEPES, and 13 mM D-glucose. Incubations were performed in a 5% CO2 + 95% O2 atmosphere. The content of synaptosomal protein was determined according to the method of Lowry et al. using bovine serum albumin as a standard.
The metabolism and oxidation of dopamine cause reactive oxygen radicals and reactive quinones to be produced, which could lead to neurotoxicity and neurodegeneration. The synaptosomes were incubated with the compounds (10 µM) for 30 min and then 6-hydroxydopamnine (150 mmol/L) was used to induce neurotoxicity. […] After 1 h, they were centrifuged on a microcentrifuge for 1 min at 15,000 rpm. The precipitates were gently mixed with buffer B and glucose and centrifuged for a second time at 15,000 rpm for 1 min. After the second wash, buffer B and glucose were added to the precipitates.
In the presented experiments, an in vitro assessment of the possible antioxidant and neuroprotective effects of the newly synthetized compounds was performed in a model of 6-OHDA induced toxicity in rat brain synaptosomes. 6-OHDA is a neurotoxicant that structurally resembles dopamine and can be used in different in vivo and in vitro models for neurotoxicity. This model resembles the histological, biochemical, and physiological characteristics of neurodegenerative diseases such as Parkinson’s and Alzheimer’s disease. […] However, their uptake into brain synaptosomes is similar among primates and rodents and they are suitable in vitro models for PD. The main mechanism of 6-OHDA toxicity includes induction of oxidative stress. It undergoes auto-oxidation or metabolic degradation to p-quinone and produces hydrogen peroxide, superoxide, and hydroxyl radicals. The process causes lipid peroxidation, protein oxidation, and DNA oxidation and finally results in oxidative stress and mitochondrial dysfunction. Rat brain synaptosomes were pretreated with compounds 3e, 3h, 3i, 3m, melatonin, and rasagiline (10 μM); after that, the samples were subjected to 6-OHDA (150 mmol/L, 1 h). The protective effects were evaluated by measurement of synaptosomal viability (MTT-test) and GSH levels (Figure 3).

## O=C(CCn1c(=S)n(CCC(=O)NN=Cc2cccc(O)c2O)c2ccccc21)NN=Cc1cccc(O)c1O [3h, 3,3′-(2-Thioxo-1H-benzo[d]imidazole-1,3(2H)-diyl)bis(N′-(2,3-dihydroxybenzylidene)propanehydrazide)]
[1]
  antioxidant effect on Fe(II) induced deoxyribose degradation (in words): stronger than the reference melatonin and similar to Trolox; also recorded: better protection effect than the reference melatonin, and a similar effect to the antioxidant Trolox
Rat brain synaptosomes
  restoration of GSH level vs. 6-OHDA treatment: 62%
